From PubChem BioAssay AID2060343 (Molecular Pharmacology Branch, DTP, NCI, 2025) come the findings set out here.

This assay deals with 138582-337-R-J1-PDC spheroids with HUVEC/MSC, viability. Nature of the assay: Anticancer human tumor 138582-337-R-J1-PDC patient-derived Merkel cell tumor cell line growth inhibition [IpAb]. Particulars: for viability, T/C: stronger effect = lower value. From the text:
Combinatorial screen of targeted agents with ipatasertib and abemaciclib in multi-cell type tumor spheroids
A high-throughput screen of multi-cell type tumor spheroids was designed to identify active combinations of targeted small molecules and ipatasertib or abemaciclib. Complex spheroids include a stromal component modeled by human endothelial cells (HUVEC) and fibroblasts modeled by human mesenchymal stem cells (MSCs). The concentration ranges selected for each drug and investigational agent were based upon clinically achievable concentrations if the clinical Cmax of the agent was known.
Compounds. The drugs and investigational agents: ipatasertib (NSC767898), abemaciclib(NSC768073), selumetinib (NSC741078), trametinib (758246), adavosertib (NSC754352), everolimus (NSC733504), sapanisertib (NSC764658), vemurafenib (NSC761431), venetoclax (NSC766270), copanlisib (NSC809693), apelisib (NSC765974), palbociblib (NSC758247), vemurafenib (NSC761431), dabrafenib (NSC764134), ravoxertinib (NSC781343), BMS-387032 (NSC767048), sotorasib (NSC818433), talazoparib (NSC767125) and afursertib (NSC778305), were obtained from the National Cancer Institute (NCI) Developmental Therapeutics Program Chemical Repository. The FDA-approved anticancer drug set is available from the NCI Developmental Therapeutics Program. […] The stock solutions were prepared in dimethyl sulfoxide (DMSO, Sigma-Aldrich, St. Louis, MO, cat. D2650) at 800-fold the tested concentration and stored at -70 degrees C prior to their use. All drugs and investigational agents were tested over a range starting from a high concentration at or near the clinical Cmax and decreasing in half-log increments. If the clinical Cmax for an agent had not been determined, the highest concentration tested was 10 microM.
NCI60 Cell Culture. NCI60 cell lines were obtained from the NCI Developmental Therapeutics Program Tumor Repository. For each lot of cells, the Repository performed Applied Biosystems AmpFLSTR Identifiler testing with PCR amplification to confirm consistency with the published Identifier STR profile for each cell line. Cells were kept in continuous culture for no more than 20 passages. The optimal seeding densities for each of the cell lines at each time point assessed were determined prior to performing the concentration response studies. Briefly, the NCI60 human tumor lines were grown as monolayers in RPMI 1640 medium supplemented with 10% FBS and 2 mmol/L L-glutamine.
An additional 9 lines were from the NCI60 cell line panel including MDA-MB-231 breast carcinoma, MDA-MB-468 breast carcinoma, MCF7 breast carcinoma, Hs578T breast carcinoma, MALME-3M melanoma, SK-MEL-2 melanoma, SK-OV-3 ovarian carcinoma, DU-145 prostate carcinoma, PC-3 prostate carcinoma, all cell lines along with major genetic alterations are listed on Table 2. Pooled donor human umbilical vein endothelial cells (HUVEC, Lonza, cat. CC-2519) and human mesenchymal stem cells (hMSC, Lonza, cat. PT-2501) were purchased from Lonza (Walkersville, MD).
PDMR cell lines were grown in complete medium (DC medium): Dulbecco's modified Eagle's medium (DMEM)/F12 supplemented with 5% fetal bovine serum (FBS), 2 mM L-glutamine, 100 U/mL penicillin and 100 µg/ml streptomycin, 0.4 µg/ml hydrocortisone, 10 ng/ml epidermal growth factor (EGF) recombinant human protein, 24 µg/mL adenine, and 0.1 mg/mL primocin. During culture from frozen stock vials, PDMR cells were cultured in the same medium containing 10 µM Y-27632 (see Table 3). The PDCs were cultured in complete DMEM/F12 media without 10 microM Y-27632 dihydrochloride for at least two passages prior to the screen. The pooled donor HUVEC and hMSC were cultured in endothelial cell growth medium 2 (PromoCell, Heidelberg, Germany, cat. C-22011) and mesenchymal stem cell growth medium 2 (PromoCell, cat. C-28009), respectively. For all experiments, HUVEC and hMSC were used at passages </=5.
[…]

Each structure is given as a SMILES string. Values joined by “and” are separate entries in the source; they are usually repeats but may differ in a detail not shown here. Equal values may be shown once.
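Further: spheroids exposed to compounds for seven days.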

Take `C=CCn1c(=O)c2cnc(Nc3ccc(N4CCN(C)CC4)cc3)nc2n1-c1cccc(C(C)(C)O)n1`: the viability, T/C (commonly the ratio of treated to control) reads like this: (compound 0.0316 µM) 96.7% and 116%; (compound 0.1 µM) 93.5% and 103%; (compound 0.316 µM) 98.4% and 90.7%; (compound 1 µM) 102% and 89.4%; (compound 3.16 µM) 126% and 110%; (compound 10 µM) 137% and 139%. Moreover, the IC50 (in general, the concentration needed to halve the response being measured) (curve of compound) was over 10000 nM.
`COc1c(OCCCN2CCOCC2)ccc2c3n(c(=NC(=O)c4cnc(N)nc4)nc12)CCN3` + CCN1CCN(Cc2ccc(Nc3ncc(F)c(-c4cc(F)c5nc(C)n(C(C)C)c5c4)n3)nc2)CC1: the IC50 (curve of first compound, second compound 0.01 µM) came out at 48.1 nM; the IC50 (curve of first compound, second compound 0.0316 µM) is 42.1 nM; the half-inhibitory concentration (IC50) (curve of first compound, second compound 0.1 µM) turned out to be 43.2 nM; the IC50 (curve of first compound, second compound 0.316 µM) was found to be 42.7 nM; the IC50 (curve of first compound, second compound 1 µM) was determined as 31.3 nM. Further, the viability, T/C runs as follows: (second compound 0.01 µM, first compound 0.00316 µM) 91.8%; (second compound 0.01 µM, first compound 0.01 µM) 80.9%; (second compound 0.01 µM, first compound 0.0316 µM) 58.5%; (second compound 0.01 µM, first compound 0.1 µM) 33.7%; (second compound 0.01 µM, first compound 0.316 µM) 15.2%; (second compound 0.01 µM, first compound 1 µM) 1.9%. The viability, T/C is, setting by setting: (second compound 0.0316 µM, first compound 0.00316 µM) 93.2%; (second compound 0.0316 µM, first compound 0.01 µM) 73.2%; (second compound 0.0316 µM, first compound 0.0316 µM) 56.7%; (second compound 0.0316 µM, first compound 0.1 µM) 35.1%; (second compound 0.0316 µM, first compound 0.316 µM) 14.7%; (second compound 0.0316 µM, first compound 1 µM) 1.66%. The viability, T/C (second compound 0.1 µM, first compound 0.00316 µM) is 84.1%; the viability, T/C (second compound 0.1 µM, first compound 0.01 µM) is 76.5%; the viability, T/C (second compound 0.1 µM, first compound 0.0316 µM) was 55.4%; the viability, T/C (second compound 0.1 µM, first compound 0.1 µM) was 32.8%; the viability, T/C (second compound 0.1 µM, first compound 0.316 µM) was 11.6%; the viability, T/C (second compound 0.1 µM, first compound 1 µM) was 1.67%. In addition, the viability, T/C reads like this: (second compound 0.316 µM, first compound 0.00316 µM) 85.9%; (second compound 0.316 µM, first compound 0.01 µM) 74.2%; (second compound 0.316 µM, first compound 0.0316 µM) 57.5%; (second compound 0.316 µM, first compound 0.1 µM) 31.4%; (second compound 0.316 µM, first compound 0.316 µM) 11.8%; (second compound 0.316 µM, first compound 1 µM) 2.07%. For the same molecule, the viability, T/C is 98.3% (second compound 1 µM, first compound 0.00316 µM); 72% (second compound 1 µM, first compound 0.01 µM); 56.6% (second compound 1 µM, first compound 0.0316 µM); 18.8% (second compound 1 µM, first compound 0.1 µM); 5.6% (second compound 1 µM, first compound 0.316 µM); 2.69% (second compound 1 µM, first compound 1 µM).
